IC50 data for 32 molecules are collected here from patent US9481670B2, “Triazine compounds” (Sphaera Pharma PTE. Ltd., priority 2011, dated 2016).

Each structure is given as a SMILES string.

T1 sequence (P42336 whole entry): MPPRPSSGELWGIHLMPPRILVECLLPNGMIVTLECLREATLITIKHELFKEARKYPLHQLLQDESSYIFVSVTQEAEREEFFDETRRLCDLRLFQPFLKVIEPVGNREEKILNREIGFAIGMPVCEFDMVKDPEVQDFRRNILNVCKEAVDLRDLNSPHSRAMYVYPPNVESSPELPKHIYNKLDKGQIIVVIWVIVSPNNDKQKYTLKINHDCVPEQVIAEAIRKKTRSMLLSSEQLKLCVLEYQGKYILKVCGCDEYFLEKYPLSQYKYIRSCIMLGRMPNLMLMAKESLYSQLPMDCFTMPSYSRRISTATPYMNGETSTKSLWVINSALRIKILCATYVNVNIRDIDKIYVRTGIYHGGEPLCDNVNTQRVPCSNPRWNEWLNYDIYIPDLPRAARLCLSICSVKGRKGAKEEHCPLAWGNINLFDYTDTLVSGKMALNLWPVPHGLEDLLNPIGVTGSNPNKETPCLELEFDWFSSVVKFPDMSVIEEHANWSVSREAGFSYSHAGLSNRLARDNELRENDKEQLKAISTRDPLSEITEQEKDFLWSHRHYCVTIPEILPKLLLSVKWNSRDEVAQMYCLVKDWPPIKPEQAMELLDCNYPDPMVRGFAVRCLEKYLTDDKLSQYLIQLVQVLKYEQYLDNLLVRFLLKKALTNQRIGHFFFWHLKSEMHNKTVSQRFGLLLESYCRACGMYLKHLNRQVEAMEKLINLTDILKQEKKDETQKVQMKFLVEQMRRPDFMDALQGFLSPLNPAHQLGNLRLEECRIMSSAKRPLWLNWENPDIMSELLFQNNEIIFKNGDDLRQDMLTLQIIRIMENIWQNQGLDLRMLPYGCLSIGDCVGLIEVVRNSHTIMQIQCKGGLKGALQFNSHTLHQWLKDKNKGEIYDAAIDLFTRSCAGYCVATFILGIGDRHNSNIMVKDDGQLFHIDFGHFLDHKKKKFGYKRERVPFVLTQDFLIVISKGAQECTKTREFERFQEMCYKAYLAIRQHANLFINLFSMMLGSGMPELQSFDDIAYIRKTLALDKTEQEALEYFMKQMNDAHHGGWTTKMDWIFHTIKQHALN
T1 sequence (P27986 whole entry partner): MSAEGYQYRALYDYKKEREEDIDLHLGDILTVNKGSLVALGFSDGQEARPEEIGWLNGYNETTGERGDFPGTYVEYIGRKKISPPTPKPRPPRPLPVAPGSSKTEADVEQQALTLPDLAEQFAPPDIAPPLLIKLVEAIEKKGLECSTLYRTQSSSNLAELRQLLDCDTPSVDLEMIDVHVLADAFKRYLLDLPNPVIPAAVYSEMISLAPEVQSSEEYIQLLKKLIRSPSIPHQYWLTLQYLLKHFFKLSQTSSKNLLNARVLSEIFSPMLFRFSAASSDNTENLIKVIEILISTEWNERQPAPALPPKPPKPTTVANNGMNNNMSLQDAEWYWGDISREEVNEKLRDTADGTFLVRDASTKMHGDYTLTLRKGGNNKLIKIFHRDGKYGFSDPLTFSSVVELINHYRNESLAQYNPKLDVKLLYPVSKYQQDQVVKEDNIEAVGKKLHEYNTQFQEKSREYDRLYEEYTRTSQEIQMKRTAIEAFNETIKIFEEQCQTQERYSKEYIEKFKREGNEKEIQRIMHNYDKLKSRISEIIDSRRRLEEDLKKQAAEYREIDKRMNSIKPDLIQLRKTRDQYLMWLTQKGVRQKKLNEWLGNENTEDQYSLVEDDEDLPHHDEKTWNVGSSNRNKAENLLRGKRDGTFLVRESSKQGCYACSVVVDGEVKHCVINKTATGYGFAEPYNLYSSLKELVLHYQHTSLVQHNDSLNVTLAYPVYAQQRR

This assay concerns the target T1, PI3K alpha (Homo sapiens, UniProt P42336).
T1 construct: purchased Millipore Upstate
Put plainly: P110 Alpha TR-FRET Assay (PI3K alpha kinase assay, HTRF Transcreener ADP Assay). The assay is classed as biochemical. The settings on record: PI3K (WT). Here is the method: PI3K alpha kinase assay may be done using HTRF Transcreener ADP Assay (Cisbio).
Composition of the reaction buffer was as follows 50 mM HEPES, pH 7.5, 5 mM MgCl2, 1 mM DTT, 30 μM Na3VO4. PI3 Kinase was procured from Millipore Upstate. […] ATP was used at final concentration of 10 μM. Corning 384 well white plates were used for the assay.
2 μl of diluted enzyme (50 ng), 3 μl of diluted compound and 5 μl of buffer were added, mixed then incubated for 20 minutes with shaking at 400 rpm. 3 μl of substrate (10 μM of ATP and 5 μM PIP2) were added to initiate the reaction. The samples were incubated for 20 min. At the end of the reaction time 10 μl of the Detection mix (5 μl of ADP-D2 and 5 μl of Anti-ADP-Cryptate) was added and the contents were incubated for 1 h. The reaction plate was directly read in an Envision Multilabel Plate Reader.
Background: In TR-FRET formats the signal depends on donor and acceptor labels being close together.
In turn, `CN(C)C(=O)c1ccc(Oc2nc(-c3ccc(N)cc3)nc(N3CCOCC3)n2)cc1` [Compound 1031, 4-14-{[4-1-(4-17-aminophenyl)-6-5-(morpholin-4-yl)-1,3,5-triazin-2-yl]oxy}-N,N-dimethylbenzamide] returned an IC50 of under 5 µM.
With `CN(C)C(=O)c1ccc(Oc2nc(-c3cncc(N)c3)nc(N3CCOCC3)n2)cc1` [Compound 1032, 4-14-{[4-1-(5-26-aminopyridin-3-yl)-6-5-(morpholin-4-yl)-1,3,5-triazin-2-yl]oxy}-N,N-dimethylbenzamide], the IC50 is under 5 µM.
To `CN(C)C(=O)c1ccc(Oc2nc(-c3cccc4c(=O)[nH]ccc34)nc(N3CCOCC3)n2)cc1` [Compound 1033, N,N-dimethyl-4-14-{[4-5-(morpholin-4-yl)-6-1-(1-30-oxo-1,2-dihydroisoquinolin-5-yl)-1,3,5-triazin-2-yl]oxy}benzamide] belongs over 5 µM.
`CN(C)C(=O)c1ccc(Oc2nc(-c3cccc4[nH]c(=O)[nH]c34)nc(N3CCOCC3)n2)cc1` [Compound 1034, N,N-dimethyl-4-14-{[4-5-(morpholin-4-yl)-6-1-(2-21-oxo-2,3-dihydro-1H-1,3-benzodiazol-4-yl)-1,3,5-triazin-2-yl]oxy}benzamide] registered an IC50 of over 5 µM.
Next, `CN(C)C(=O)[C@H]1CC[C@H](Oc2nc(-c3ccc(N)nc3)nc(N3CCOCC3)n2)CC1` [Compound 1035, (1r,4r)-4-9-{[4-1-(6-12-aminopyridin-3-yl)-6-5-(morpholin-4-yl)-1,3,5-triazin-2-yl]oxy}-N,N-dimethylcyclohexane-1-carboxamide]: under 5 µM; `CN(C)C(=O)c1ccc(Oc2nc(-c3ccnc(N)c3)nc(N3CCOCC3)n2)cc1` [Compound 1036, 4-14-{[4-1-(2-26-aminopyridin-4-yl)-6-5-(morpholin-4-yl)-1,3,5-triazin-2-yl]oxy}-N,N-dimethylbenzamide]: under 5 µM; `Nc1ccc(-c2nc(SCc3ccccc3)nc(N3CCOCC3)n2)cn1` [Compound 1037, 5-(4-(benzylthio)-6-morpholino-1,3,5-triazin-2-yl)pyridin-2-amine]: under 5 µM.
To `CN(C)C(=O)c1ccc(Oc2nc(-c3cccc4[nH]ncc34)nc(N3CCNC(=O)CC3)n2)cc1` [Compound 1038, 4-7-{[4-5-(1H-indazol-4-yl)-6-3-(5-31-oxo-1,4-diazepan-1-yl)-1,3,5-triazin-2-yl]oxy}-N,N-dimethylbenzamide] belongs over 5 µM; to `CN(C)C(=O)c1ccc(Oc2nc(-c3cccc4[nH]ncc34)nc(N3CCCC(C(N)=O)C3)n2)cc1` (centres unmarked) [Compound 1039, 1-27-{4-1-[4-10-(dimethylcarbamoyl)phenoxy]-6-5-(1H-indazol-4-yl)-1,3,5-triazin-2-yl}piperidine-3-carboxamide], over 5 µM; to `CN(C)C(=O)c1cccc(Nc2nc(-c3cnc(N)nc3)nc(N3CCOCC3)n2)c1` [Compound 1040, 3-((4-(2-aminopyrimidin-5-yl)-6-morpholino-1,3,5-triazin-2-yl)amino)-N,N-dimethylbenzamide], under 5 µM.
To `CN(C)C(=O)c1ccc(Oc2nc(-c3cnc4[nH]ccc4c3)nc(N3CCOCC3)n2)cc1` [Compound 1041, N,N-dimethyl-4-8-{[4-5-(morpholin-4-yl)-6-1-{1H-pyrrolo[2,3-b]pyridin-5-yl}-1,3,5-triazin-2-yl]oxy}benzamide] belongs under 5 µM; to `Nc1ncc(-c2nc(N3CCOCC3)nc(N3CCOCC3)n2)s1` [Compound 1042, 5-7-[4-3,6-5-bis(morpholin-4-yl)-1,3,5-triazin-2-yl]-1,3-thiazol-2-amine], under 5 µM.
In the case of `CN(C)C(=O)c1ccc(Oc2nc(-c3cccc4[nH]ncc34)nc(N3CCOc4ccccc43)n2)cc1` [Compound 1043, 4-9-{[4-5-(3,4-dihydro-2H-1,4-benzoxazin-4-yl)-6-1-(1H-indazol-4-yl)-1,3,5-triazin-2-yl]oxy}-N,N-dimethylbenzamide], the IC50 is over 5 µM.
Next, `CN(C)C(=O)c1ccc(Oc2nc(-c3cccc4[nH]ncc34)nc(N3CCC(=O)CC3)n2)cc1` [Compound 1044, 4-8-{[4-5-(1H-indazol-4-yl)-6-3-(4-30-oxopiperidin-1-yl)-1,3,5-triazin-2-yl]oxy}-N,N-dimethylbenzamide]: over 5 µM; `Cc1nc(N2CCOCC2)nc(N2CCOCC2)n1` [Compound 1045, 2-1-methyl-4-5,6-3-bis(morpholin-4-yl)-1,3,5-triazine]: over 5 µM.
Regarding `NC(=O)c1cccc(Nc2nc(-c3cnc(N)nc3)nc(N3CCOCC3)n2)c1` [Compound 1046, 3-((4-(2-aminopyrimidin-5-yl)-6-morpholino-1,3,5-triazin-2-yl)amino)benzamide], the half-maximal inhibitory concentration (IC50) was under 5 µM.
`CN(C)C(=O)c1ccc(Oc2nc(-c3cccc4[nH]ncc34)nc(N3CC(C(N)=O)C3)n2)cc1` [Compound 1047, 1-7-{4-1-[4-11-(dimethylcarbamoyl)phenoxy]-6-5-(1H-indazol-4-yl)-1,3,5-triazin-2-yl}azetidine-3-carboxamide] gave an IC50 of over 5 µM.
With `CS(=O)(=O)N[C@H]1CCC[C@H](Oc2nc(-c3cccc4c3cnn4S(C)(=O)=O)nc(N3CCOCC3)n2)C1` [Compound 1048, N-[(1S,3S)-3-14-{[4-1-(1-27-methanesulfonyl-1H-indazol-4-yl)-6-5-(morpholin-4-yl)-1,3,5-triazin-2-yl]oxy}cyclohexyl]methanesulfonamide], the IC50 was under 5 µM.
To `CN(C)C(=O)N1CCN(Cc2nc(-c3ccc(N)nc3)nc(N3CCOCC3)n2)CC1` [Compound 1049, 4-((4-(6-aminopyridin-3-yl)-6-morpholino-1,3,5-triazin-2-yl)methyl)-N,N-dimethylpiperazine-1-carboxamide] belongs under 5 µM.
Next, `CN(C)C(=O)c1ccc(Oc2nc(-c3cccc4[nH]nnc34)nc(N3CCOCC3)n2)cc1` [Compound 1050, 4-14-{[4-1-(1H-1,2,3-benzotriazol-4-yl)-6-5-(morpholin-4-yl)-1,3,5-triazin-2-yl]oxy}-N,N-dimethylbenzamide]: over 5 µM.
To `Nc1ncc(-c2nc(N3CCOCC3)nc(N3CCNC(=O)CC3)n2)cn1` [Compound 1051, 1-6-[4-1-(2-22-aminopyrimidin-5-yl)-6-5-(morpholin-4-yl)-1,3,5-triazin-2-yl]-1,4-diazepan-5-one] belongs under 5 µM; to `CN(C)C(=O)c1ccc(Oc2nc(-c3ccc4[nH]ccc4c3)nc(N3CCOCC3)n2)cc1` [Compound 1052, 4-14-{[4-1-(1H-indol-5-yl)-6-5-(morpholin-4-yl)-1,3,5-triazin-2-yl]oxy}-N,N-dimethylbenzamide], under 5 µM; to `Nc1ncc(-c2nc(N3CCOCC3)nc(N3CCN(S(N)(=O)=O)CC3)n2)cn1` [Compound 1053, 4-6-[4-1-(2-16-aminopyrimidin-5-yl)-6-5-(morpholin-4-yl)-1,3,5-triazin-2-yl]piperazine-1-sulfonamide], under 5 µM.
`O=C1CCc2ccc(Oc3nc(-c4cccc5[nH]ncc45)nc(N4CCOCC4)n3)cc2N1` [Compound 1054, 7-14-{[4-1-(1H-indazol-4-yl)-6-5-(morpholin-4-yl)-1,3,5-triazin-2-yl]oxy}-1,2,3,4-tetrahydroquinolin-2-one] gave an IC50 of under 5 µM.
To `CN(C)C(=O)c1ccc(Oc2nc(-c3cccc4[nH]ncc34)nc(N3CC4(COC4)C3)n2)cc1` [Compound 1055, 4-8-{[4-5-(1H-indazol-4-yl)-6-3-{2-oxa-6-azaspiro[3.3]heptan-6-yl}-1,3,5-triazin-2-yl]oxy}-N,N-dimethylbenzamide] belongs over 5 µM; to `CN(C)C(=O)c1cccc(Nc2nc(-c3cccc4[nH]ncc34)nc(N3CC(C(N)=O)C3)n2)c1` [Compound 1056], over 5 µM.
Next, `CN(C)C(=O)c1ccc(Oc2nc(NC3CCOCC3)nc(-c3cccc4[nH]ncc34)n2)cc1` [Compound 1057, 4-((4-(1H-indazol-4-yl)-6-((tetrahydro-2H-pyran-4-yl)amino)-1,3,5-triazin-2-yl)oxy)-N,N-dimethylbenzamide]: over 5 µM; `CN(C)C(=O)c1ccc(Oc2nc(-c3ccnc4[nH]ccc34)nc(N3CCOCC3)n2)cc1` [Compound 1058, N,N-dimethyl-4-14-{[4-5-(morpholin-4-yl)-6-1-{1H-pyrrolo[2,3-b]pyridin-4-yl}-1,3,5-triazin-2-yl]oxy}benzamide]: under 5 µM.
To `CN(C)C(=O)c1ccc(Oc2nc(-c3cccc4[nH]ncc34)nc(N3CCNC(=O)C3)n2)cc1` [Compound 1059, 4-7-{[4-5-(1H-indazol-4-yl)-6-3-(3-29-oxopiperazin-1-yl)-1,3,5-triazin-2-yl]oxy}-N,N-dimethylbenzamide] belongs over 5 µM; to `CN(C)C(=O)c1cccc(Nc2nc(-c3ccc(N)nc3)nc(N3CCOCC3)n2)c1` [Compound 1060, 3-((4-(6-aminopyridin-3-yl)-6-morpholino-1,3,5-triazin-2-yl)amino)-N,N-dimethylbenzamide], under 5 µM; to `CN1CCN(c2nc(Oc3ccc(C(=O)N(C)C)cc3)nc(-c3cccc4[nH]ncc34)n2)CC1` [Compound 1061, 4-9-{[4-1-(1H-indazol-4-yl)-6-5-(4-30-methylpiperazin-1-yl)-1,3,5-triazin-2-yl]oxy}-N,N-dimethylbenzamide], over 5 µM.
With `CS(=O)(=O)N1CCN(c2nc(-c3cnc(N)nc3)nc(N3CCOCC3)n2)CC1` [Compound 1062, 5-13-[4-3-(4-22-methanesulfonylpiperazin-1-yl)-6-5-(morpholin-4-yl)-1,3,5-triazin-2-yl]pyrimidin-2-amine], the IC50 was under 5 µM.

The IC50 is the concentration that inhibits the measured activity by half.
